Measured values reported in the CheMixHub viscosity set.

Experiment: xn = mol fraction of the nth substance listed

CCNCCO + CN(C)CCO
viscosity [mPa·s], 101.3 kPa
Settings | x1 = 0.0999 | x1 = 0.2001 | x1 = 0.3 | x1 = 0.4 | x1 = 0.4998 | x1 = 0.6001 | x1 = 0.7 | x1 = 0.8002 | x1 = 0.9
293.15 K | 3.88 | 4.63 | 5.5 | 6.48 | 7.55 | 8.66 | 9.82 | 10.97 | 12.14
303.15 K | 2.92 | 3.31 | 3.85 | 4.47 | 5.17 | 5.88 | 6.63 | 7.39 | 8.16
313.15 K | 2.18 | 2.42 | 2.8 | 3.22 | 3.71 | 4.24 | 4.78 | 5.32 | 5.84
323.15 K | 1.79 | 1.95 | 2.15 | 2.39 | 2.68 | 2.98 | 3.3 | 3.62 | 3.93

CC(C)OCCO + CO
298.15 K, 101.33 kPa
Settings | viscosity [mPa·s]
x1 = 0.012 | 0.569
x1 = 0.0276 | 0.602
x1 = 0.05 | 0.637
x1 = 0.0732 | 0.684
x1 = 0.1063 | 0.749
x1 = 0.1319 | 0.795
x1 = 0.1558 | 0.842
x1 = 0.1871 | 0.897
x1 = 0.2119 | 0.946
x1 = 0.2575 | 1.036
x1 = 0.2683 | 1.056
x1 = 0.3161 | 1.145
x1 = 0.3643 | 1.235
x1 = 0.412 | 1.324
x1 = 0.4685 | 1.415
x1 = 0.5152 | 1.485
x1 = 0.5447 | 1.529
x1 = 0.6149 | 1.624
x1 = 0.6869 | 1.719
x1 = 0.7416 | 1.789
x1 = 0.7775 | 1.832
x1 = 0.8335 | 1.912
x1 = 0.8955 | 1.975
x1 = 0.9189 | 2.003
x1 = 0.9415 | 2.032
x1 = 0.9701 | 2.064

CCOS(=O)(=O)[O-].CC[N+](CC)=C(N(C)C)N(C)C + CO
viscosity [mPa·s], 100 kPa
Settings | x1 = 0.1 | x1 = 0.1991 | x1 = 0.298 | x1 = 0.3949 | x1 = 0.4982 | x1 = 0.5999 | x1 = 0.6953 | x1 = 0.7999 | x1 = 0.9002
293.15 K | 1.785 | 4.501 | 9.381 | 18.38 | 32.98 | 53.59 | 80.2 | 115.6 | 153.4
298.15 K | 1.634 | 4.072 | 8.2 | 15.58 | 27.24 | 42.8 | 62.36 | 87.46 | 112.3
303.15 K | 1.504 | 3.661 | 7.163 | 13.38 | 22.82 | 34.85 | 49.55 | 67.85 | 86.71
308.15 K | 1.389 | 3.307 | 6.417 | 11.63 | 19.37 | 28.79 | 40.16 | 53.89 | 67.59
313.15 K | 1.287 | 3 | 5.724 | 10.18 | 16.65 | 24.17 | 33.08 | 43.49 | 53.73
318.15 K | 1.195 | 2.734 | 4.994 | 8.991 | 14.45 | 20.55 | 27.69 | 35.64 | 43.24
323.15 K | 1.113 | 2.5 | 4.58 | 7.999 | 12.64 | 17.68 | 23.46 | 29.74 | 35.49

COC(=O)c1ccccc1 + CO
viscosity [mPa·s], 101.33 kPa
Settings | x1 = 0.0499 | x1 = 0.0999 | x1 = 0.2 | x1 = 0.3001 | x1 = 0.4001 | x1 = 0.4999 | x1 = 0.5999 | x1 = 0.65 | x1 = 0.8001 | x1 = 0.9001
293.15 K | 0.653 | 0.721 | 0.86 | 0.997 | 1.133 | 1.263 | 1.395 | 1.461 | 1.673 | 1.834
298.15 K | 0.608 | 0.67 | 0.796 | 0.918 | 1.041 | 1.156 | 1.273 | 1.331 | 1.518 | 1.66
303.15 K | 0.568 | 0.625 | 0.738 | 0.849 | 0.958 | 1.062 | 1.167 | 1.22 | 1.387 | 1.511
308.15 K | 0.531 | 0.584 | 0.686 | 0.786 | 0.886 | 0.98 | 1.075 | 1.122 | 1.272 | 1.385
313.15 K | 0.499 | 0.547 | 0.64 | 0.732 | 0.822 | 0.907 | 0.993 | 1.036 | 1.173 | 1.275

CCOCCOCCOCC + COC(=O)OC
viscosity [mPa·s], 101.33 kPa
Settings | 298.15 K | 308.15 K | 318.15 K
x1 = 0.0109 | 0.604 | 0.532 | 0.48
x1 = 0.0541 | 0.641 | 0.563 | 0.502
x1 = 0.0935 | 0.677 | 0.593 | 0.523
x1 = 0.1383 | 0.718 | 0.624 | 0.546
x1 = 0.1877 | 0.76 | 0.654 | 0.571
x1 = 0.2422 | 0.808 | 0.689 | 0.604
x1 = 0.3409 | 0.886 | 0.752 | 0.651
x1 = 0.4435 | 0.959 | 0.811 | 0.697
x1 = 0.5274 | 1.021 | 0.855 | 0.727
x1 = 0.6085 | 1.072 | 0.894 | 0.761
x1 = 0.7154 | 1.136 | 0.942 | 0.798
x1 = 0.8183 | 1.189 | 0.986 | 0.831
x1 = 0.9068 | 1.229 | 1.019 | 0.857
x1 = 0.9643 | 1.258 | 1.037 | 0.872

c1ccc2c(c1)CCCC2 + COC(C)(C)C
303.15 K, 101 kPa
Settings | viscosity [mPa·s]
x2 = 0.1289 | 1.534
x2 = 0.1851 | 1.432
x2 = 0.2839 | 1.253
x2 = 0.3506 | 1.136
x2 = 0.4458 | 0.983
x2 = 0.5017 | 0.903
x2 = 0.6257 | 0.737
x2 = 0.7392 | 0.606
x2 = 0.8539 | 0.486
x2 = 0.9246 | 0.37
